Holding throughout (format): biochemical
One experiment deals with T1, MraYBS R281A mutant (Bacillus subtilis, UniProt Q03521, R281A).
T1 construct: MBP; made in house
The experiment in a line: HPLC-based MraY functional assay, mutant MraY. The conditions noted are these: consumption of 6 in one-hour reaction. On the procedure: (§1) The purified MraY from Bacillus subtilis was prepared as described in our previous reports. For 5 and 7–10, the reaction mixture containing MraYBS (10 μg/mL), C55P (200 μM) in 40 μL reaction buffer (30 mM Tris, 10 mM MgCl2, 10 mM NaCl, 0.1 mM Tween-20, 2.5% DMSO, pH 8.0) were pre-incubated at 37 °C for 15 min. The reactions were initiated by the addition of Park’s nucleotide analogues (10 μM) and incubated at 37 °C for 1 h. The reaction mixtures were added by uridine (0.01 mg/mL) as the internal standard and heated to 100 °C to stop the transferring reaction. The samples were analyzed by RP-C18 HPLC with gradient elution of 0.25 M NH4HCO3(aq)/15% MeOH in water (100:0 to 0:100) at a flow rate of 1 mL/min over 45 min, and the peaks of substrates were monitored at UV 260 nm. […] The reaction mixtures were heated to 100 °C to stop the transferring reaction, and samples were analyzed by an anion-exchange column (SAX1, Supelco Co., 5 μm, 4.6 × 250 mm) with a linear gradient elution of NH4OAc (20 mM to 1 M in MeOH) at a flow rate of 1.0 mL/min over 30 min. The fluorescent substrates were monitored with λex 466 nm/λem 535 nm by fluorescence detector. […]

The target of another experiment is T2, MraYBS (Bacillus subtilis, UniProt Q03521).
T2 construct: MBP; made in house
T2 sequence (Q03521 1-324): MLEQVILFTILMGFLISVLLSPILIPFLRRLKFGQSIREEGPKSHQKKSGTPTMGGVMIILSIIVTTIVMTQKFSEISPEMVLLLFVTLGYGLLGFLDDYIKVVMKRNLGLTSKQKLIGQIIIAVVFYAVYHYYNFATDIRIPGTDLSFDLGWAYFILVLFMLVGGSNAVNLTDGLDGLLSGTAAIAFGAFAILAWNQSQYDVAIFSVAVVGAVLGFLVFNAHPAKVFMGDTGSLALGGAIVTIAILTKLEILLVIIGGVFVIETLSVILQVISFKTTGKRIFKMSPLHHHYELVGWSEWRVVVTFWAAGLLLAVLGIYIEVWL
Description: HPLC-based MraY functional assay (substrate activity). As for the experimental part:
The purified MraY from Bacillus subtilis was prepared as described in our previous reports. […] […] The reaction mixtures were added by uridine (0.01 mg/mL) as the internal standard and heated to 100 °C to stop the transferring reaction. The samples were analyzed by RP-C18 HPLC with gradient elution of 0.25 M NH4HCO3(aq)/15% MeOH in water (100:0 to 0:100) at a flow rate of 1 mL/min over 45 min, and the peaks of substrates were monitored at UV 260 nm. For 6 and 11–17, the reaction mixture containing MraYBS (10 μg/mL), C55P (200 μM), 6-(7-Nitro-2,1,3-benzoxadiazol-4-ylamino)hexanoic acid (5 μM, internal standard) in 10 μL reaction buffer (30 mM Tris, 10 mM MgCl2, 10 mM NaCl, 0.1 mM Tween-20, 2.5% DMSO, pH 8.0) were pre-incubated at 37 °C for 15 min. […] The reaction mixtures were heated to 100 °C to stop the transferring reaction, and samples were analyzed by an anion-exchange column (SAX1, Supelco Co., 5 μm, 4.6 × 250 mm) with a linear gradient elution of NH4OAc (20 mM to 1 M in MeOH) at a flow rate of 1.0 mL/min over 30 min. The fluorescent substrates were monitored with λex 466 nm/λem 535 nm by fluorescence detector.

Another experiment concerns the target T3, MraYBS F228A mutant (Bacillus subtilis, UniProt Q03521, F228A).
T3 construct: MBP; made in house
Description: HPLC-based MraY functional assay, mutant MraY. The conditions noted are these: consumption of 6 in one-hour reaction. On the procedure:
as §1

Another experiment concerns the target T4, MraYBS K226A mutant (Bacillus subtilis, UniProt Q03521, K226A).
T4 construct: MBP; made in house
Description: HPLC-based MraY functional assay, mutant MraY. The conditions noted are these: consumption of 6 in one-hour reaction. On the procedure:
as §1

Regarding `CC(=O)N[C@H]1[C@@H](OP(=O)(O)OP(=O)(O)OC[C@H]2O[C@@H](n3ccc(=O)[nH]c3=O)[C@H](O)[C@@H]2O)O[C@H](CO)[C@@H](O)[C@@H]1O[C@H](C)C(=O)N[C@@H](C)C(=O)N[C@H](CCC(=O)N[C@@H](CCCCNC(=O)CCCCCNc1ccc([N+](=O)[O-])c2nonc12)C(=O)N[C@H](C)C(=O)N[C@H](C)C(=O)O)C(=O)O` [Compound 6, NBD-Park’s nucleotide], the Relative activity is 81% on MraYBS R281A mutant; 100% at MraYBS (WT MraYBS, consumption of 6 in one-hour reaction); 98% at MraYBS F228A mutant; 100% at MraYBS K226A mutant. In addition, the substrate consumption entry at MraYBS (C55P (200 μM) as polyprenyl phosphate substrate, substrate 10 μM, within 1 h (60 min)) is recorded as “completely consumed”.
